Reference: the supplement of paper PMC10307832

How the values were obtained:
Assay in all cases: relative viability (nuclei count vs DMSO), 5 days (fraction); higher = more cells survive
Pictilisib + Foretinib = compound: CS(=O)(=O)N1CCN(Cc2cc3nc(-c4cccc5[nH]ncc45)nc(N4CCOCC4)c3s2)CC1 [Pictilisib] + COc1cc2c(Oc3ccc(NC(=O)C4(C(=O)Nc5ccc(F)cc5)CC4)cc3F)ccnc2cc1OCCCN1CCOCC1 [Foretinib] (partner 0.25 µM)
Summary of the method: (§1)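 Lung cancer cell lines in 1536-well plates got either a single drug or a fixed anchor-drug dose together with five library-drug doses (not always all listed) in √10 steps, by pin tool, on the day after seeding. Nuclei were counted after 5 days, and relative viability is the treated-to-vehicle ratio of nuclei counts. Values are medians of duplicate plates.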

Pictilisib + AZD7762 = compound: CS(=O)(=O)N1CCN(Cc2cc3nc(-c4cccc5[nH]ncc45)nc(N4CCOCC4)c3s2)CC1 [Pictilisib] + NC(=O)Nc1cc(-c2cccc(F)c2)sc1C(=O)N[C@H]1CCCNC1 [AZD7762] (partner 0.2 µM)
Summary of the method: as §1

Pictilisib + Vorinostat = compound: CS(=O)(=O)N1CCN(Cc2cc3nc(-c4cccc5[nH]ncc45)nc(N4CCOCC4)c3s2)CC1 [Pictilisib] + O=C(CCCCCCC(=O)Nc1ccccc1)NO [Vorinostat] (partner 1 µM)
Summary of the method: as §1

MK-2206 + Dasatinib = compound: NC1(c2ccc(-c3nc4ccn5c(=O)[nH]nc5c4cc3-c3ccccc3)cc2)CCC1 [MK-2206] + Cc1nc(Nc2ncc(C(=O)Nc3c(C)cccc3Cl)s2)cc(N2CCN(CCO)CC2)n1 [Dasatinib] (partner 0.075 µM)
Summary of the method: as §1

MK-2206 + AZD7762 = compound: NC1(c2ccc(-c3nc4ccn5c(=O)[nH]nc5c4cc3-c3ccccc3)cc2)CCC1 [MK-2206] + NC(=O)Nc1cc(-c2cccc(F)c2)sc1C(=O)N[C@H]1CCCNC1 [AZD7762] (partner 0.2 µM)
Summary of the method: as §1

| Cell Line | relative viability (Pictilisib + Foretinib; first compound 0.02 µM) | relative viability (Pictilisib + Foretinib; first compound 0.06325 µM) | relative viability (Pictilisib + Foretinib; first compound 0.6325 µM) | relative viability (Pictilisib + Foretinib; first compound 2 µM) | relative viability (Pictilisib + AZD7762; first compound 0.02 µM) | relative viability (Pictilisib + AZD7762; first compound 0.06325 µM) | relative viability (Pictilisib + AZD7762; first compound 0.6325 µM) | relative viability (Pictilisib + AZD7762; first compound 2 µM) | relative viability (Pictilisib + Vorinostat; first compound 0.02 µM) | relative viability (Pictilisib + Vorinostat; first compound 0.06325 µM) | relative viability (Pictilisib + Vorinostat; first compound 0.6325 µM) | relative viability (Pictilisib + Vorinostat; first compound 2 µM) | relative viability (MK-2206 + Dasatinib; first compound 0.01 µM) | relative viability (MK-2206 + Dasatinib; first compound 0.03162 µM) | relative viability (MK-2206 + Dasatinib; first compound 0.3162 µM) | relative viability (MK-2206 + Dasatinib; first compound 1 µM) | relative viability (MK-2206 + AZD7762; first compound 0.01 µM) | relative viability (MK-2206 + AZD7762; first compound 0.03162 µM) | relative viability (MK-2206 + AZD7762; first compound 0.3162 µM) | relative viability (MK-2206 + AZD7762; first compound 1 µM) |
| --- | --- | --- | --- | --- | --- | --- | --- | --- | --- | --- | --- | --- | --- | --- | --- | --- | --- | --- | --- | --- |
| LCLC-97TM1 | 0.991 | 0.972 | 0.714 | 0.239 | 0.34 | 0.469 | 0.258 | 0.133 | 0.712 | 0.658 | 0.619 | 0.212 | 0.847 | 0.858 | 0.893 | 0.898 | 0.294 | 0.12 | 0.285 | 0.333 |
| EMC-BAC-2 | 0.946 | 0.922 | 0.813 | 0.664 | 1.16 | 1.12 | 0.798 | 0.631 | 0.88 | 0.615 | 0.337 | 0.286 | 0.266 | 0.334 | 0.335 | 0.312 | 1.06 | 1.17 | 1.02 | 0.852 |
| NCI-H441 | 0.929 | 0.749 | 0.745 | 0.539 | 1.18 | 1.11 | 1.11 | 0.7 | 0.972 | 0.682 | 0.607 | 0.457 | 0.566 | 0.503 | 0.501 | 0.422 | 1.27 | 0.941 | 1.25 | 0.869 |
| LCLC-103H | 0.77 | 0.634 | 0.403 | 0.393 | 0.803 | 0.728 | 0.588 | 0.456 | 0.84 | 0.737 | 0.634 | 0.469 | 0.459 | 0.497 | 0.461 | 0.355 | 0.751 | 0.818 | 0.765 | 0.712 |
| HOP-62 | 1.05 | 1.16 | 1.05 | 1.03 | 0.759 | 0.668 | 0.469 | 0.459 | 0.676 | 0.573 | 0.566 | 0.348 | 0.592 | 0.73 | 0.624 | 0.665 | 0.734 | 0.336 | 0.437 | 0.71 |
| NCI-H1793 | 0.563 | 0.448 | 0.415 | 0.21 | 0.449 | 0.404 | 0.226 | 0.142 | 0.712 | 0.724 | 0.379 | 0.243 | 0.474 | 0.514 | 0.344 | 0.317 | 0.679 | 0.232 | 0.243 | 0.251 |
| NCI-H1355 | 0.931 | 0.868 | 0.849 | 0.398 | 0.678 | 0.689 | 0.546 | 0.362 | 0.62 | 0.624 | 0.589 | 0.257 | 0.734 | 0.7 | 0.701 | 0.432 | 0.664 | 0.557 | 0.681 | 0.6 |
| A-427 | 1.15 | 0.929 | 1 | 0.604 | 0.796 | 0.738 | 0.556 | 0.403 | 0.84 | 0.874 | 0.95 | 0.853 | 0.698 | 0.735 | 0.698 | 0.596 | 0.751 | 0.596 | 0.598 | 0.601 |
| LXF-289 | 1.01 | 0.931 | 0.957 | 0.926 | 1.19 | 1.14 | 1.08 | 0.849 | 0.885 | 0.696 | 0.763 | 0.557 | 0.212 | 0.251 | 0.254 | 0.203 | 1.06 | 1.01 | 1.12 | 1.15 |
| NCI-H2087 | 1 | 1.19 | 0.828 | 0.588 | 1.39 | 1.29 | 1.29 | 0.952 | 0.61 | 1.06 | 0.919 | 0.539 | 0.71 | 0.962 | 0.918 | 0.775 | 0.809 | 1.34 | 1.4 | 1.33 |
| CAL-12T | 1.09 | 1.14 | 1.08 | 0.918 | 0.609 | 0.845 | 0.724 | 0.626 | 0.755 | 0.664 | 0.629 | 0.283 | 0.486 | 0.504 | 0.355 | 0.345 | 0.617 | 0.455 | 0.716 | 0.664 |
| NCI-H596 | 0.603 | 0.735 | 0.454 | 0.283 | 1.01 | 1.14 | 0.564 | 0.44 | 0.545 | 0.618 | 0.371 | 0.709 | 0.669 | 0.662 | 0.577 | 0.505 | 1.16 | 1.06 | 1.05 | 1.01 |
| PC-14 | 1.04 | 0.976 | 0.953 | 0.805 | 0.399 | 0.366 | 0.246 | 0.155 | 0.72 | 0.661 | 0.534 | 0.325 | 0.289 | 0.346 | 0.27 | 0.294 | 0.326 | 0.243 | 0.329 | 0.366 |
| NCI-H1915 | 1.07 | 1.12 | 1.1 | 1.02 | 0.681 | 0.716 | 0.579 | 0.525 | 0.537 | 0.521 | 0.536 | 0.403 | 0.348 | 0.329 | 0.348 | 0.271 | 0.74 | 0.573 | 0.735 | 0.576 |
| NCI-H647 | 1.05 | 0.997 | 1.15 | 0.758 | 0.474 | 0.577 | 0.283 | 0.201 | 0.532 | 0.795 | 0.515 | 0.276 | 0.17 | 0.188 | 0.154 | 0.156 | 0.46 | 0.356 | 0.521 | 0.473 |
